# Experimental data from US12458614B2, “Therapeutic agents for improved mobility and cognitive function and for treating neurodegenerative diseases and lysosomal storage disorders” (priority 2017, dated 2025).
# What was measured:
# [1] = tested on: patients with Tay-Sachs disease; assay: Case studies, Tay-Sachs disease (SARA, SCAFI, MoCA); assay type: in vivo, human
# Source text: For example, to evaluate overall neurological status, mDRS, a four-domain scale (ambulation, manipulation, language and swallowing), may be applied. Cerebellar function may be evaluated using SARA, an eight-item clinical rating scale (gait, stance, sitting, speech, fine motor function and taxis; range 0-40, where 0 is the best neurological status and 40 the worst), and SCAFI, comprising the 8-m-Walking-Time (8MW; performed by having patients walking twice as quickly as possible from one line to another excluding turning), 9-Hole-Peg-Test (9HPT) and the number of “PATA” repetitions over 10 s. Subjective impairment and quality of life may be evaluated using the EQ-5D-5L questionnaire and VAS. To assess ocular motor function, 3-dimensional videooculography (EyeSeeCam) may be used to measure the peak velocity of saccades, gain of smooth pursuit, peak slow phase velocity of gaze-evoked nystagmus (gaze-holding function), peak slow phase velocity of optokinetic nystagmus, and gain of horizontal vestibulo-ocular reflex. To evaluate the cognitive state, WAIS-R or WISC-IV, and MoCA, assessing different cognitive domains, including attention and concentration, executive functions, memory, language, visuoconstructional skills, conceptual thinking, calculations, and orientation with a maximum of 30 points and a cut-off score of 26, may be used. The skilled person will know how to perform these and other such tests.
# The day following this examination, the patient was started on therapy with acetyl-leucine, at a dose of 3 g per day for the first week, followed by a dose of 5 g per day for the second week onwards.
# The day of the examination, the patient was started on therapy with acetyl-leucine at a dose of 3 g per day for the first week, followed by a dose of 5 g per day for the second week onwards.
# The patient was started on therapy with acetyl-leucine at a dose of 1.5 g per day for the first week, followed by a dose of 3 g per day for the second week onwards.
# [2] = tested on: microtubule-associated protein 1A/1B-light chain 3-phosphatidylethanolamine conjugate (LC3-II); assay: LC3-II levels relative to tubulin loading control; assay type: in vivo, mouse; settings: NPC1−/− mice, 0.1 g/kg body weight daily from 3 weeks, sacrificed at 8 weeks
# Procedure: The Niemann-Pick Disease Type C (NPC) mouse model shares a number of pathological features with Alzheimer's disease (AD) as described herein. […] Mice were sacrificed at 8 weeks of age. Levels of amyloid precursor protein C-terminal fragments (APP-CTFs) were evaluated relative to total amyloid precursor protein (APP) levels in the cerebellum for wild type, untreated wild type NPC1^−/− mice, and AL-treated wild type NPC1^−/− mice. Levels of microtubule-associated protein 1A/1B-light chain 3-phosphatidylethanolamine conjugate (LC3-II) were also evaluated relative to levels of tubulin loading control for wild type, untreated wild type NPC1^−/− mice, and AL-treated wild type NPC1^−/− mice.
# [3] = tested on: Mucopolysaccharidosis Type VII (MPS VII) patient fibroblasts; assay: Lysosomal volume via LysoTracker; assay type: cell-based, human; settings: 1 mM, 6 days
# [4] = tested on: patient with progressive gait disorder; assay: Case study Example 26, quantitative gait analysis; assay type: in vivo, human
# [5] = tested on: patients with amyotrophic lateral sclerosis (ALS); assay: Case studies, amyotrophic lateral sclerosis; assay type: in vivo, human
# Source text: The results were documented by video.
# [6] = tested on: patients with multiple system atrophy Parkinson type (MSA-P); assay: Case studies, multiple system atrophy Parkinson type; assay type: in vivo, human; settings: MSA-P Patient 3, after one month
# Source text: Medication was stopped. […] The patient evaluated after one month on acetyl-DL-leucine. […] Episodes of mental confusion completely disappeared. The patient's cognitive structure seemed much clearer and straighter. […] The patient's spouse supported continuing the medication.
# [7] = tested on: Sandhoff disease model, Hexb−/− mouse; assay: Bar crossing test; assay type: in vivo; settings: Sandhoff mice, 0.1 g/kg from 3 weeks of age
# Source text: This study made use of a mouse model of Sandhoff disease, the Hexb^−/− mouse, as descrbed in Jeyakumar et al. (Jeyakumar, M. et al. (1999) Proc. Natl. Acad. Sci. USA 96: 6388-6393). The bar crossing test is a method for assessing motor function in mice in which the mouse is placed hanging from the centre of a horizontal bar by its front limbs. A wild-type mouse with normal motor function will be able to engage its hind limbs and thereby move to one of the platforms at either end of the bar, and in doing so complete the test. […] In FIG. 7 B, acetyl-leucine treatment of 0.1 g/kg body weight was provided from 3 weeks of age. The acetyl-leucine treated Sandhoff mice retained the ability to complete the test up to 13 weeks of age (inclusive). Data shown is the mean of 6 mice per group. The treated Sandhoff mice retained the ability to complete the test up to 13 weeks of age (inclusive).
# [8] = tested on: patients with cerebellar ataxia; settings: cited from earlier work
# [9] = tested on: patients with multiple system atrophy Parkinson type (MSA-P); assay: Case studies, multiple system atrophy Parkinson type; assay type: in vivo, human
# [10] = tested on: person with gait problems and postural imbalance; assay: Case study Example 25, quantitative gait analysis; assay type: in vivo, human
# Procedure: The patient was then treated with Tanganil® (500 mg) in 3 separate doses throughout the day—1 g upon waking, 1 g prior to lunch and 1 g prior to the evening meal for one week, followed by 2 g upon waking, 1.5 g prior to lunch and 1.5 g prior to the evening meal.
# [11] = ALS Patient 1, after a further 20 days
# [12] = ALS Patient 2, after approximately 2 months
# [13] = MSA-P Patient 2, after one month of treatment
smiles,measurement,setting,value
CC(=O)NC(CC(C)C)C(=O)O (racemic) [acetyl-DL-leucine],Overall symptoms,[1]; Tay-Sachs Patient 1,improvement in symptoms
same,Clinical re-examination,"[1]; Tay-Sachs Patient 1, after four months","stable condition with slightly improved cognitive function but had deterioration of stance, gait and fine motor function"
same,Clinical re-examination,"[1]; Tay-Sachs Patient 1, after one month, 3 g then 5 g per day",improved fine motor skills and reduced hand tremor
same,Clinical re-examination,"[1]; Tay-Sachs Patient 2, after one month, 3 g then 5 g per day","increased enunciation, improved postural stability, and enhanced cognitive function"
same,Clinical re-examination,"[1]; Tay-Sachs Patient 3, after one month, 1.5 g then 3 g per day",increased fine motor skills
same,LC3-II levels relative to tubulin,[2],lowering of LC3-II
same,LysoTracker fluorescence vs untreated disease fibroblasts,[3],trend in reducing LysoTracker fluorescence toward control level
same,Gait (patient and spouse report),[4]; 3 gram per day for two weeks,considerable improvement of gait
same,Functioning and quality of living (spouse report),"[4]; Day 42, 3 gram per day restarted",dramatic improvement
same,Self-chosen gait velocity,"[4]; Day 42, from 55 cm/sec",62 cm/s
same,Maximal gait velocity,"[4]; Day 42, from 84 cm/sec",130 cm/s
same,Symptoms after medication was stopped,[4]; in vivo,worsening of symptoms
same,Overall symptoms,[5]; ALS Patient 1,improvement in symptoms
same,Speech after stopping treatment,"[5]; ALS Patient 1, about 7 days plus 1-2 additional weeks off treatment",deterioration of speech
same,Speech (patient report),"[5]; ALS Patient 1, after 15 days, 3 then 5 gram per day",significant improvement of speech
same,Paresis of right foot-dorsiflexors / foot drop,[5]; [11],foot drop had improved dramatically
same,Sleep (patient report),[5]; [11],improvement in sleep
same,Speech (patient report),[5]; [11],further improvement of speech
same,Symptomatology after resuming treatment,"[5]; ALS Patient 1, second resumption","improved symptomatology, in particular speech"
same,Motor function of the left hand,[5]; [12],progredient deterioration of the motor function of the left hand
same,Swallowing functions,[5]; [12],remained stable
same,Walking (patient report),[5]; [12],discrete improvement of walking
same,Symptomatology (patient report),"[5]; ALS Patient 3, after one month",did not report improvement of symptomatology
same,Symptomatology after suspension,"[5]; ALS Patient 4, 10 days after therapy was suspended",worsening of symptomatology
same,Symptomatology (patient report),"[5]; ALS Patient 4, after about one month",subjective improvement of dysphagia and less hypersalivation
same,Cognitive function (reported by wife),[6],significant improvement of cognitive function
same,Gait function,[6],no improvement of gait function
same,Age up to which ability to complete the bar crossing test was retained (inclusive),[7],up to 13 weeks of age
same,"Motor function and hind-limb mobility/engagement, bar-crossing test",[7],improved motor function and hind-limb mobility/engagement
same,benefit in degenerative cerebellar ataxia,[8]; case series (Pelz 2015),did not find benefit
same,symptoms of cerebellar ataxia,[8]; case series (Strupp 2013),symptomatic improvement of cerebellar ataxia
same,temporal gait variability,[8]; quantitative gait analysis (Schniepp 2015),improved temporal gait variability
same,Symptoms after stopping medication,"[9]; MSA-P Patient 1, 6 weeks later",did not report deterioration of symptoms
same,"Gait, falls, hypokinetic rigid-syndrome (patient report)","[9]; MSA-P Patient 1, after 3 weeks","no significant improvement of gait, reduction of falls or improved hypokinetic rigid-syndrome"
same,Balance (clinical examination),[9]; [13],improved balancing on an imaginary tightrope
same,Dizziness (patient report),[9]; [13],subjective improvement of dizziness
same,Symptomatology (patient report),"[9]; MSA-P Patient 2, after one month without medication",stable symptomatology
same,Symptomatology (patient report),"[9]; MSA-P Patient 2, after two months without medication",worsening of general symptomatology
same,Tolerability,[10]; 3 g/day one week then 5 g/day,very well tolerated
same,Gait and imbalance (patient and child report),[10]; 3 weeks after beginning treatment,gait and imbalance was significantly improved
same,% of the time in the gait cycle in which both feet are in contact with the ground,[10]; after 3 weeks' treatment,25.5%
same,Cadence,[10]; after 3 weeks' treatment,100 steps/minute
same,Coefficient of variation (CV) of stride time,[10]; after 3 weeks' treatment,1.8
same,Maximum walking speed,[10]; after 3 weeks' treatment,157 cm/s
same,Natural walking speed,[10]; after 3 weeks' treatment,96 cm/s
same,Spreading width,[10]; after 3 weeks' treatment,8.1 cm
same,Step cycle length,[10]; after 3 weeks' treatment,116 cm
